Test results as given in patent publication US7888464B2, “Hepatitis C virus inhibitors” (Bristol-Myers Squibb Company, priority 2006, dated 2011).
Where two headings read alike, the source gives them in different places.

Legend:
[1] = target: T1, HCV NS3/4A protease complex, BMS strain (genotype 1a) (UniProt P27958, species not given/STRAIN_BMS); assay: FRET peptide assay to monitor HCV NS3/4A proteolytic activity (BMS strain); assay type: biochemical; details: NS3/4A BMS strain, read-out: HCV Protease (IC50)
T1 construct: "DNA encoding the recombinant HCV NS3/4A protease complex (amino acids 1027 to 1711) for these strains" (said of H77 and J4L6S, not expressly of BMS); given for the H77/J4L6S constructs only
T1 sequence (P27958 1027-1657, stated change not applied, one chain of several): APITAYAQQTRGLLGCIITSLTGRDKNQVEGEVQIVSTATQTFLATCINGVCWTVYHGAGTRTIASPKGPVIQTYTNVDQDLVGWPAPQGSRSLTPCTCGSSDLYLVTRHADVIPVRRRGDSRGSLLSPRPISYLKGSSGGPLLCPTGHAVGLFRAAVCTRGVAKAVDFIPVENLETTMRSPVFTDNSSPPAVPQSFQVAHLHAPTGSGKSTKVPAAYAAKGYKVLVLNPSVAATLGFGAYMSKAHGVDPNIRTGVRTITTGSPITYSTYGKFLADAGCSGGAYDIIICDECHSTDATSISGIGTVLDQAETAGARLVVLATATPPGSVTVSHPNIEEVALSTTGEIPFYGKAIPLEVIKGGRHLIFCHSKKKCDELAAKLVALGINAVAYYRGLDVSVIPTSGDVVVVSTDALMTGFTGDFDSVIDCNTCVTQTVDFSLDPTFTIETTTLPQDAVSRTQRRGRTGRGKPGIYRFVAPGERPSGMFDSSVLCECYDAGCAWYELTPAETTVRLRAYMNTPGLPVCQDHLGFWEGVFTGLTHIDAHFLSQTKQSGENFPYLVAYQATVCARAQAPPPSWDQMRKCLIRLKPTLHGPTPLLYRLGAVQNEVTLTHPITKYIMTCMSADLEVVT
Text: HCV NS3 protease complexes, derived from the BMS strain, H77 strain or J4L6S strain, were generated, as described below. These purified recombinant proteins were generated for use in a homogeneous assay (see below) to provide an indication of how effective compounds of the present disclosure would be in inhibiting HCV NS3 proteolytic activity.
Serum from an HCV-infected patient was obtained from Dr. T. Wright, San Francisco Hospital. An engineered full-length cDNA (compliment deoxyribonucleic acid) template of the HCV genome (BMS strain) was constructed from DNA fragments obtained by reverse transcription-PCR(RT-PCR) of serum RNA (ribonucleic acid) and using primers selected on the basis of homology between other genotype la strains. From the determination of the entire genome sequence, a genotype la was assigned to the HCV isolate according to the classification of Simmonds et al. (See P Simmonds, K A Rose, S Graham, S W Chan, F McOmish, B C Dow, E A Follett, P L Yap and H Marsden, J. Clin. Microbiol., 31(6), 1493-1503 (1993)). […] The infectious clones, H77 (1a genotype) and J4L6S (1b genotype) were obtained from R. Purcell (NIH) and the sequences are published in Genbank (AAB67036, see Yanagi, M., Purcell, R. H., Emerson, S. U. and Bukh, J. Proc. Natl. Acad. Sci. U.S.A. 94(16), 8738-8743 (1997); AF054247, see Yanagi, M., St Claire, M., Shapiro, M., Emerson, S. U., Purcell, R. H. and Bukh, J, Virology 244 (1), 161-172. (1998)).
The H77 and J4L6S strains were used for production of recombinant NS3/4A protease complexes. DNA encoding the recombinant HCV NS3/4A protease complex (amino acids 1027 to 1711) for these strains were manipulated as described by P. Gallinari et al. (see Gallinari P, Paolini C, Brennan D, Nardi C, Steinkuhler C, De Francesco R. Biochemistry. 38(17):5620-32, (1999)). Briefly, a three-lysine solubilizing tail was added at the 3′-end of the NS4A coding region. The cysteine in the P1 position of the NS4A-NS4B cleavage site (amino acid 1711) was changed to a glycine to avoid the proteolytic cleavage of the lysine tag. Furthermore, a cysteine to serine mutation was introduced by PCR at amino acid position 1454 to prevent the autolytic cleavage in the NS3 helicase domain. The variant DNA fragment was cloned in the pET21b bacterial expression vector (Novagen) and the NS3/4A complex was expressed in Escherichia. coli strain BL21 (DE3) (Invitrogen) following the protocol described by P. Gallinari et al. (see Gallinari P, Brennan D, Nardi C, Brunetti M, Tomei L, Steinkuhler C, De Francesco R., J. Virol. 72(8):6758-69 (1998)) with modifications. Briefly, the NS3/4A protease complex expression was induced with 0.5 millimolar (mM) Isopropyl β-D-1-thiogalactopyranoside (IPTG) for 22 hours (h) at 20° C. A typical fermentation (1 Liter (L)) yielded approximately 10 grams (g) of wet cell paste. The cells were resuspended in lysis buffer (10 mL/g) consisting of 25 mM N-(2-Hydroxyethyl)piperazine-N′-(2-Ethane Sulfonic acid) (HEPES), pH 7.5, 20% glycerol, 500 mM Sodium Chloride (NaCl), 0.5% Triton X-100, 1 microgram/milliliter (“μg/mL”) lysozyme, 5 mM Magnesium Chloride (MgCl2), 1 μg/ml DnaseI, 5 mM β-Mercaptoethanol (βME), Protease inhibitor-Ethylenediamine Tetraacetic acid (EDTA) free (Roche), homogenized and incubated for 20 minutes (min) at 4° C. The homogenate was sonicated and clarified by ultra-centrifugation at 235000 g for 1 hour (h) at 4° C. Imidazole was added to the supernatant to a final concentration of 15 mM and the pH adjusted to 8.0. The crude protein extract was loaded on a Nickel-Nitrilotriacetic acid (Ni-NTA) column pre-equilibrated with buffer B (25 mM HEPES, pH 8.0, 20% glycerol, 500 mM NaCl, 0.5% Triton X-100, 15 mM imidazole, 5 mM βME). The sample was loaded at a flow rate of 1 mL/min. The column was washed with 15 column volumes of buffer C (same as buffer B except with 0.2% Triton X-100). The protein was eluted with 5 column volumes of buffer D (same as buffer C except with 200 mM Imidazole). […]

[2] = tested on: HCV replicon (strain 1b) in HUH-7 cells; assay: HCV replicon FRET assay; assay type: cell-based; details: Hepatitis C virus
Text: An HCV replicon whole cell system was established as described by Lohmann V, Korner F, Koch J, Herian U, Theilmann L, Bartenschlager R., Science 285(5424): 110-3 (1999). This system enabled us to evaluate the effects of our HCV Protease compounds on HCV RNA replication. Briefly, using the HCV strain 1b sequence described in the Lohmann paper (Assession number: AJ238799), an HCV cDNA was synthesized by Operon Technologies, Inc. (Alameda, Calif.), and the full-length replicon was then assembled in plasmid pGem9zf(+) (Promega, Madison, Wis.) using standard molecular biology techniques. The replicon consists of (i) the HCV 5′ UTR fused to the first 12 amino acids of the capsid protein, (ii) the neomycin phosphotransferase gene (neo), (iii) the IRES from encephalomyocarditis virus (EMCV), and (iv) HCV NS3 to NS5B genes and the HCV 3′ UTR. Plasmid DNAs were linearized with ScaI and RNA transcripts were synthesized in vitro using the T7 MegaScript transcription kit (Ambion, Austin, Tex.) according to manufacturer's directions. In vitro transcripts of the cDNA were transfected into the human hepatoma cell line, HUH-7. […] Resulting cell lines were characterized for positive and negative strand RNA production and protein production over time.
The HCV replicon FRET assay was developed to monitor the inhibitory effects of compounds described in the disclosure on HCV viral replication. HUH-7 cells, constitutively expressing the HCV replicon, were grown in Dulbecco's Modified Eagle Media (DMEM) (Gibco-BRL) containing 10% Fetal calf serum (FCS) (Sigma) and 1 mg/ml G418 (Gibco-BRL). Cells were seeded the night before (1.5×10^4 cells/well) in 96-well tissue-culture sterile plates. Compound and no compound controls were prepared in DMEM containing 4% FCS, 1:100 Penicillin/Streptomysin (Gibco-BRL), 1:100 L-glutamine and 5% DMSO in the dilution plate (0.5% DMSO final concentration in the assay). Compound/DMSO mixes were added to the cells and incubated for 4 days at 37° C. After 4 days, cells were first assessed for cytotoxicity using alamar Blue (Trek Diagnotstic Systems) for a CC50 reading. The toxicity of compound (CC50) was determined by adding 1/10th volume of alamar Blue to the media incubating the cells. After 4 h, the fluorescence signal from each well was read, with an excitation wavelength at 530 nm and an emission wavelength of 580 nm, using the Cytofluor Series 4000 (Perspective Biosystems). Plates were then rinsed thoroughly with Phosphate-Buffered Saline (PBS) (3 times 150 μl). The cells were lysed with 25 μl of a lysis assay reagent containing an HCV protease substrate (5× cell Luciferase cell culture lysis reagent (Promega #E153A) diluted to 1× with distilled water, NaCl added to 150 mM final, the FRET peptide substrate (as described for the enzyme assay above) diluted to 10 μM final from a 2 mM stock in 100% DMSO. The plate was then placed into the Cytofluor 4000 instrument which had been set to 340 nm excitation/490 nm emission, automatic mode for 21 cycles and the plate read in a kinetic mode. EC50 determinations were carried out as described for the IC50 determinations.

[3] = activity range symbols of Table 2
[4] = Huh-7, read-out: HCV Pro Replicon (EC50)

SMILES	IC50 [1, 3]	EC50 [2, 4]	IC50 ([1]; numeric cells of Table 2)	EC50 ([2]; Huh-7, HCV replicon, numeric cells of Table 2, read-out: HCV Pro Replicon (EC50))
C=C[C@@H]1C[C@]1(NC(=O)[C@@H]1C[C@@](OC)(c2ccc(-c3ccccc3)cc2)CN1C(=O)[C@H](CC(C)C)NC(=O)OC(C)(C)C)C(=O)NS(=O)(=O)C1CC1 [Cmpd 203, {(S)-1-[(2S,4R)-4-Biphenyl-4-yl-2-((S)-(1R,2S)-1-cyclopropanesulfonylaminocarbonyl-2-vinyl-cyclopropylcarbamoyl)-4-methoxy-pyrrolidine-1-carbonyl]-3-methyl-butyl}-carbamic acid tert-butyl ester]	1 to 50 nM	50 to 500 nM	–	–
C=CCCCCC[C@H](NC(=O)OC(C)(C)C)C(=O)N1C[C@](OC)(c2ccc(-c3ccccc3)cc2)C[C@H]1C(=O)N[C@]1(C(=O)NS(=O)(=O)C2CC2)C[C@H]1C=C [Cmpd 107]	50 to 500 nM	> 500 nM	–	–
C=C[C@@H]1C[C@]1(NC(=O)[C@@H]1C[C@@](OC)(c2ccc(-c3ccccc3)cc2)CN1C(=O)[C@H](Nc1ccc(F)c(F)c1)C(C)(C)C)C(=O)NS(=O)(=O)C1CC1 [Cmpd 210, (2S,4R)-4-Biphenyl-4-yl-1-[(R)-2-(3,4-difluoro-phenylamino)-3,3-dimethyl-butyryl]-4-methoxy-pyrrolidine-2-carboxylic acid ((1R,2S)-1-cyclopropanesulfonylaminocarbonyl-2-vinyl-cyclopropyl)-amide]	> 500 nM	> 500 nM	–	–
C=C[C@@H]1C[C@]1(NC(=O)[C@@H]1C[C@@](OC)(c2ccc(-c3ccccc3)cc2)CN1C(=O)[C@@H](NC(=O)OC(C)(C)C)C(C)(C)C)C(=O)NS(=O)(=O)C1CC1 [Cmpd 106, tert-butyl (S)-1-((2S,4R)-4-(biphenyl-4-yl)-2-((1R,2S)-1-(cyclopropylsulfonylcarbamoyl)-2-vinylcyclopropylcarbamoyl)-4-methoxypyrrolidin-1-yl)-3,3-dimethyl-1-oxobutan-2-ylcarbamate]	–	–	1 nM	11 nM
C=C[C@@H]1C[C@]1(NC(=O)[C@@H]1C[C@@](OC)(c2ccc(-c3ccccc3)cc2)CN1C(=O)[C@@H](NC(=O)NC(C)(C)C)C(C)(C)C)C(=O)NS(=O)(=O)C1CC1 [Cmpd 206, (2S,4R)-4-Biphenyl-4-yl-1-[(S)-2-(3-tert-butyl-ureido)-3,3-dimethyl-butyryl]-4-methoxy-pyrrolidine-2-carboxylic acid ((1R,2S)-1-cyclopropanesulfonylaminocarbonyl-2-vinyl-cyclopropyl)-amide]	1 to 50 nM	1 to 50 nM	–	–
C=C[C@@H]1C[C@]1(NC(=O)[C@@H]1C[C@@](OC)(c2ccc(-c3ccccc3)cc2)CN1C(=O)[C@@H](NC(=O)OC(C)(C)C(F)(F)F)C(C)(C)C)C(=O)NS(=O)(=O)C1CC1 [Cmpd 200, {(S)-1-[(2S,4R)-4-Biphenyl-4-yl-2-((S)-(1R,2S)-1-cyclopropanesulfonylaminocarbonyl-2-vinyl-cyclopropylcarbamoyl)-4-methoxy-pyrrolidine-1-carbonyl]-2,2-dimethyl-propyl}-carbamic acid 2,2,2-trifluoro-1,1-dimethyl-ethyl ester]	1 to 50 nM	1 to 50 nM	–	–
C=C[C@@H]1C[C@]1(NC(=O)[C@@H]1C[C@@](OCc2ccccc2)(c2ccc(-c3ccccc3)cc2)CN1C(=O)[C@@H](NC(=O)OC(C)(C)C)C(C)(C)C)C(=O)NS(=O)(=O)C1CC1 [Cmpd 108]	1 to 50 nM	1 to 50 nM	–	–
